Measurements as given in paper PMC3206071, “Characterization of a Truncated Metabotropic Glutamate Receptor in a Primitive Metazoan, the Parasitic Flatworm Schistosoma mansoni” (PLoS ONE, 2011).

What was measured:
[1] = target: T1, SmGBP (S. mansoni glutamate-binding protein) (Schistosoma mansoni, UniProt E2IFW0); test: [3H]glutamate radioligand competition at […], purified SmGBP-His
[2] = target: T1, SmGBP (S. mansoni glutamate-binding protein); test: as above; details: read-out: % inhibition at 10 mM
[3] = target: T1, SmGBP (S. mansoni glutamate-binding protein); test: [3H]glutamate radioligand competition with unlabelled glutamate, PEG precipitation, purified SmGBP-His

T1 sequence (E2IFW0 entry or part of it): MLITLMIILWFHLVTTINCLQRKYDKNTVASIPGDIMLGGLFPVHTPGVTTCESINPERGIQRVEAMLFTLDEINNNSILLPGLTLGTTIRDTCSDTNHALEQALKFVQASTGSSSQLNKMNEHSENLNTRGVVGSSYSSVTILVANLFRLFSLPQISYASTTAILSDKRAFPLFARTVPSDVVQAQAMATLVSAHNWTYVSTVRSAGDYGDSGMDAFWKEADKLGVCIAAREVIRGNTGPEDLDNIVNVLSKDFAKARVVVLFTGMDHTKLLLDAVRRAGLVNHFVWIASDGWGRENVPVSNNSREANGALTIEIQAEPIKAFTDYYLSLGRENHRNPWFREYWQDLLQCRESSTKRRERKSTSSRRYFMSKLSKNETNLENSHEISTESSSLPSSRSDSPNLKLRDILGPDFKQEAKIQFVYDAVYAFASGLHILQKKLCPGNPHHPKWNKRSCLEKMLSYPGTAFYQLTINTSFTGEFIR

inhibition at 10000 µM [2]	Compound	[3H]glutamate radioligand competition at 10 mM, purified SmGBP-His [1]	also measured
–	N[C@H](C(=O)O)c1cc(O)cc(O)c1 [(S)-3,5-DHPG, (S)-3,5-Dihydroxyphenylglycine]	also recognized some glutamatergic agents, for example, agonists DHPG and AP4 and the antagonist, MCPG	–
–	C[C@@](N)(C(=O)O)c1ccc(C(=O)O)cc1 [(S)-MCPG, (S)-a-Methyl-4-carboxyphenylglycine]	able to compete with [^3H]glutamate, AP4 (mGluR III agonist) and S)-MCPG (mGluRs I/II antagonist) being the strongest	–
–	N[C@@H](CCP(=O)(O)O)C(=O)O [L-AP4, L-(+)-2-Amino-4-phosphonobutyric acid]	able to compete with [^3H]glutamate, AP4 (mGluR III agonist) and S)-MCPG (mGluRs I/II antagonist) being the strongest	–
84%	N[C@@H](CC(=O)O)C(=O)O [aspartate]	–	–
–	N[C@@H](CCC(=O)O)C(=O)O [glutamate]	–	IC50 [3]: 0.3 ± 0.05 µM
77%	NC(=O)CC[C@H](N)C(=O)O [glutamine]	–	–
